In publication PMC10141580, “Cyclic Dichalcogenides Extend the Reach of Bioreductive Prodrugs to Harness Thiol/Disulfide Oxidoreductases: Applications to seco-Duocarmycins Targeting the Thioredoxin System” (ACS Central Science, 2023):
pIC50: −log10 of the molar value. Read-outs that look alike come from different tables or passages of the source.

Test system: panel of 140 standard cancer cell lines
Assay: ProliFiler-140 cancer cell line screen (CellTiterGlo, 72 h)
Type: cell-based
Settings: Homo sapiens; for IC50: read-out: IC50 [M] (ProliFiler-140); for pIC50: read-out: IC50
Protocol: Incubations were performed for 72 h before automated viability readout with CellTiterGlo (Figure 8).
End of Figure S11 (part 5 of 5): ProliFiler-140 cancer cell line screening for cytotoxicity of the prodrugs.
8-data-point dose response curves from CellTiter-Glo® viability readout.
ProliFiler-140 cell line panel part V

In the case of `COc1cccc2c1C(=O)c1c(O)c3c(c(O)c1C2=O)C[C@@](O)(C(=O)CO)C[C@@H]3O[C@H]1C[C@H](N)[C@H](O)[C@H](C)O1` [doxorubicin, reference compound], the IC50 (DV-90, DV90 (Lung)) was 1.9e-08 M, the IC50 (Detroit 562, Detroit562 (Head/Neck)) was 1.54e-07 M and the IC50 (EFM-19, EFM-19 (Breast)) was 4.7e-07 M. The IC50 (EFO-27, EFO-27 (Ovary)) was 2.9e-07 M, the IC50 (EPLC-272H, EPLC-272H (Lung)) was 1.97e-07 M and the IC50 (HCC38, HCC38 (Breast)) was 5.21e-08 M. It also gave an IC50 (HCC827, HCC827 (Lung)) of 3.5e-07 M, an IC50 (HCC1569, HCC 1569 (Breast)) of 7e-07 M and an IC50 (HCT-15, HCT-15 (Colon)) of 6.43e-07 M. For the same molecule, the IC50 (HCT-116, HCT116 (Colon)) was 1.07e-07 M, the pIC50 (HCT-116, HCT116) was 6.96 and the IC50 (HEC-1-A, HEC-1-A (Endometrium)) was 3.3e-07 M. The IC50 (HEC-1B, HEC-1-B (Endometrium)) was 2.4e-06 M, the IC50 (HL-60, HL-60 (Blood)) was 2.6e-08 M and the pIC50 (HL-60, HL-60) was 7.59. For the same molecule, the IC50 (HT-29, HT-29 (Colon)) was 3.7e-07 M, the pIC50 (HT-29, HT-29) was 6.43 and the IC50 (HT-1080, HT-1080 (Fibrosarcoma)) was 7.6e-08 M. For the same molecule, the IC50 (HeLa, HeLa (Cervix)) was 8.04e-08 M, the IC50 (Hs746T, Hs 746T (Stomach)) was 4e-07 M and the IC50 (HuTu80, Hutu 80 (Duodenum)) was 1.87e-08 M. The IC50 (Huh-7, HuH7 (Liver)) was 2.1e-07 M, the IC50 (Ishikawa, Ishikawa (Endometrium)) was 7.7e-08 M and the IC50 (JIMT-1, JIMT-1 (Breast)) was 1.3e-06 M. The IC50 (JVM-3, JVM-3 (Blood)) was 3e-08 M, the IC50 (Jurkat, Jurkat (Blood)) was 4.01e-08 M and the IC50 (K562, K562 (Blood)) was 4.4e-07 M. The IC50 (KARPAS-299, KARPAS 299 (Blood)) was 7.32e-08 M, the IC50 (KATO III, Kato III (Stomach)) was 9e-07 M and the IC50 (KG-1a, KG-1 a (Blood)) was 4.91e-07 M. For the same molecule, the IC50 (KMS-12-BM, KMS-12-BM (Blood)) was 1.65e-07 M, the IC50 (LN-229, LN229 (Brain)) was 2.16e-07 M and the IC50 (LNCaP, LnCap (Prostate)) was 1.9e-07 M. For the same molecule, the IC50 (LoVo, LOVO (Colon)) was 1.11e-07 M, the IC50 (MDA-MB-435, MDA MB 435 (Skin)) was 4.8e-07 M and the IC50 (MDA-MB-468, MDA-MB-468 (Breast)) was 4.7e-08 M. For the same molecule, the IC50 (MEC1, MEC-1 (Blood)) was 7.3e-08 M, the IC50 (MIA PaCa-2, Mia PaCA 2 (Pancreas)) was 7.37e-08 M and the IC50 (MKN-1, MKN-1 (Stomach)) was 5.2e-08 M. For the same molecule, the IC50 (MKN-45, MKN-45 (Stomach)) was 3.16e-07 M, the IC50 (MOLM-13, MOLM-13 (Blood)) was 2.1e-08 M and the IC50 (MOLT-4, MOLT-4 (Blood)) was 2.6e-08 M. It also gave a pIC50 (MOLT-4, MOLT-4) of 7.59, an IC50 (MV4-11, MV4-11 (Blood)) of 4.3e-09 M and an IC50 (NALM-6, NALM-6 (Blood)) of 2.3e-08 M. The IC50 (NCI-H82, NCI-H82 (Lung)) was 6.2e-07 M, the IC50 (NCI-H292, NCI-H292 (Lung)) was 7.2e-08 M and the IC50 (NCI-H441, NCI-H441 (Lung)) was 3.49e-07 M. The IC50 (NCI-H460, H460 (Lung)) was 2.6e-08 M, the IC50 (NCI-H838, NCI-H838 (Lung)) was 1.5e-07 M and the IC50 (NCI-H1048, NCI-H1048 (Lung)) was 3.2e-08 M. It also gave an IC50 (NCI-H1299, H1299 (Lung)) of 2.23e-07 M, an IC50 (NCI-H1437, NCI-H1437 (Lung)) of 1.39e-07 M and an IC50 (NCI-H1563, NCI-H1563 (Lung)) of 5.4e-07 M. For the same molecule, the IC50 (NCI-H1573, NCI-H1573 (Lung)) was 3e-06 M, the IC50 (NCI-H1581, NCI-H1581 (Lung)) was 1.47e-07 M and the IC50 (NCI-H1703, NCI-H1703 (Lung)) was 9.2e-08 M. For the same molecule, the IC50 (NCI-H1838, NCI-H1838 (Lung)) was 2.5e-07 M.
